As usually defined, the IC50 is the midpoint of a concentration-inhibition curve.

Holding throughout (type): functional, organism-based
The subject of assay [1] is Plasmodium falciparum. Description: Antiplasmodial activity against chloroquine-sensitive Plasmodium falciparum D10.
In assay [2] the test system is Plasmodium falciparum. The assay is described as follows: Antiplasmodial activity against chloroquine-resistant Plasmodium falciparum W2.
Assay [3] relates to Plasmodium falciparum. Description: Antiplasmodial activity against chloroquine-sensitive Plasmodium falciparum 3D7.
Assay [4] concerns Plasmodium falciparum. Description: Antiplasmodial activity against chloroquine-resistant Plasmodium falciparum K1.

As for `CS(=O)(=O)OC(c1ccc(CNCCCN2CCN(CCC/N=c3\cc[nH]c4cc(Cl)ccc34)CC2)cc1)c1cccc(Cl)c1` (stereo not drawn), the IC50 in the assay with Plasmodium falciparum [1] was 110 µM; with Plasmodium falciparum [2], 98 µM; in the assay on Plasmodium falciparum [3], 7.8 µM; in the assay with Plasmodium falciparum [4] it was 447 µM.

On to `O=C(NCCCN1CCN(CCC/N=c2\cc[nH]c3cc(Cl)ccc23)CC1)C(c1cccc(Cl)c1)n1ccnc1` (stereo not drawn), for which the IC50 stood at 221 µM in the assay with Plasmodium falciparum [1], 540 µM in the assay on Plasmodium falciparum [2], 40 µM in the assay with Plasmodium falciparum [3] and 200 µM in the assay with Plasmodium falciparum [4].

For the compound `Clc1ccc2/c(=N/CCCN3CCN(CCCNCc4ccc(CN5CCCC5)cc4)CC3)cc[nH]c2c1`, the IC50 in the assay with Plasmodium falciparum [1] is 260 µM; in the assay with Plasmodium falciparum [2] it was 207 µM.

Consider `Clc1cccc(C(NCCCN2CCN(CCC/N=c3\cc[nH]c4cc(Cl)ccc34)CC2)c2ccc(CN3CCCC3)cc2)c1` (stereo not drawn), for which the IC50 in the assay on Plasmodium falciparum [1] was 663 µM; in the assay with Plasmodium falciparum [2], 495 µM.

With `Clc1ccc2/c(=N/CCCN3CCN(CCCNCC4N=CC=N4)CC3)cc[nH]c2c1`, the IC50 in the assay on Plasmodium falciparum [1] is 1610 µM; in the assay with Plasmodium falciparum [2] it was 1440 µM.

`O=C(c1ccc(CNCCCN2CCN(CCC/N=c3\cc[nH]c4cc(Cl)ccc34)CC2)cc1)c1cccc(Cl)c1`: the IC50 came out at 26 µM in the assay on Plasmodium falciparum [1], 33 µM with Plasmodium falciparum [2], 1.6 µM with Plasmodium falciparum [3] and 16 µM with Plasmodium falciparum [4].

For the compound `CCN(CC)CCCC(C)NC1CC=Nc2cc(Cl)ccc21` (stereo not drawn), the IC50 with Plasmodium falciparum [1] is 22 µM; in the assay with Plasmodium falciparum [2] it was 280 µM; in the assay with Plasmodium falciparum [3] it was 10 µM; with Plasmodium falciparum [4], 260 µM.

Take `Clc1ccc2/c(=N/CCCN3CCN(CCCNc4nc5ccccc5[nH]4)CC3)cc[nH]c2c1`: the IC50 in the assay with Plasmodium falciparum [1] came out at 407 µM; in the assay on Plasmodium falciparum [2] it was 535 µM.

`OC(c1ccc(CNCCCN2CCN(CCC/N=c3\cc[nH]c4cc(Cl)ccc34)CC2)cc1)c1cccc(Cl)c1` (stereo not drawn): the IC50 with Plasmodium falciparum [1] was determined as 145 µM; in the assay with Plasmodium falciparum [2] it was 269 µM; in the assay with Plasmodium falciparum [3] it was 28 µM; in the assay on Plasmodium falciparum [4], 135 µM.
